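Each compound was tested at five concentrations against cells in 96-well plates for 48 hours. The concentration for 50% growth inhibition is given as GI50.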 The source made the active and inactive calls. Cut-off read from the data, not from the text of the source: active = GI50 up to about 1.1 µM and inactive = higher.
What was measured:
Test in all cases: NCI-60 cell line screen, 48 h
DU-145 = system: DU-145
CCRF-CEM = system: CCRF-CEM
UACC-62 = system: UACC-62
OVCAR-5 = system: OVCAR-5
UO-31 = system: UO-31
NCI-H460 = system: NCI-H460
EKVX = system: EKVX
PC-3 = system: PC-3
OVCAR-4 = system: OVCAR-4
T47D = system: T47D
HOP-62 = system: HOP-62
BT-549 = system: BT-549
SN12C = system: SN12C
SNB-75 = system: SNB-75
IGROV-1 = system: IGROV-1
RXF 393 = system: RXF 393
786-0 = system: 786-0
HCT-15 = system: HCT-15
CAKI-1 = system: CAKI-1
SF-268 = system: SF-268
SW-620 = system: SW-620
NCI-H522 = system: NCI-H522
SNB-19 = system: SNB-19
A498 = system: A498
NCI-H23 = system: NCI-H23
UACC-257 = system: UACC-257
SK-OV-3 = system: SK-OV-3
HCT-116 = system: HCT-116
Malme-3M = system: Malme-3M
ACHN = system: ACHN
HL-60 = system: HL-60
SF-539 = system: SF-539
LOX IMVI = system: LOX IMVI
HT-29 = system: HT-29
COLO 205 = system: COLO 205
KM12 = system: KM12
MCF7 = system: MCF7
TK-10 = system: TK-10
NCI-H226 = system: NCI-H226
SK-MEL-5 = system: SK-MEL-5
SR = system: SR
HOP-92 = system: HOP-92
OVCAR-3 = system: OVCAR-3
SF-295 = system: SF-295
MDA-N = system: MDA-N
SK-MEL-2 = system: SK-MEL-2
Hs-578T = system: Hs-578T
MDA-MB-435 = system: MDA-MB-435
MOLT-4 = system: MOLT-4
NCI/ADR-RES = system: NCI/ADR-RES
SK-MEL-28 = system: SK-MEL-28
A549 = system: A549
OVCAR-8 = system: OVCAR-8
M14 = system: M14
U-251 = system: U-251
RPMI-8226 = system: RPMI-8226
HCC 2998 = system: HCC 2998
MDA-MB-231 = system: MDA-MB-231
K562 = system: K562

CC(C)(C)[Si](C)(C)OCc1cccc(OCCOc2cccc(CO[Si](C)(C)C(C)(C)C)c2[N+](=O)[O-])c1[N+](=O)[O-]
GI50 (DU-145): > 100 µM (inactive) | GI50 (CCRF-CEM): > 100 µM (inactive) | GI50 (UACC-62): > 100 µM (inactive) | GI50 (OVCAR-5): > 100 µM (inactive) | GI50 (UO-31): > 100 µM (inactive) | GI50 (NCI-H460): > 100 µM (inactive) | GI50 (EKVX): > 100 µM (inactive) | GI50 (PC-3): > 100 µM (inactive) | GI50 (OVCAR-4): > 100 µM (inactive) | GI50 (T47D): > 100 µM (inactive) | GI50 (HOP-62): > 100 µM (inactive) | GI50 (BT-549): > 100 µM (inactive) | GI50 (SN12C): > 100 µM (inactive) | GI50 (SNB-75): > 100 µM (inactive) | GI50 (IGROV-1): > 100 µM (inactive) | GI50 (RXF 393): > 100 µM (inactive) | GI50 (786-0): > 100 µM (inactive) | GI50 (HCT-15): > 100 µM | GI50 (CAKI-1): > 100 µM (inactive) | GI50 (SF-268): > 100 µM (inactive) | GI50 (SW-620): > 100 µM (inactive) | GI50 (NCI-H522): > 100 µM (inactive) | GI50 (SNB-19): > 100 µM (inactive) | GI50 (A498): > 100 µM (inactive) | GI50 (NCI-H23): > 100 µM (inactive) | GI50 (UACC-257): > 100 µM (inactive) | GI50 (SK-OV-3): > 100 µM (inactive) | GI50 (HCT-116): > 100 µM (inactive) | GI50 (Malme-3M): > 100 µM (inactive) | GI50 (ACHN): > 100 µM (inactive) | GI50 (HL-60): > 100 µM (inactive) | GI50 (SF-539): > 100 µM (inactive) | GI50 (LOX IMVI): > 100 µM (inactive) | GI50 (HT-29): > 100 µM (inactive) | GI50 (COLO 205): > 100 µM (inactive) | GI50 (KM12): > 100 µM (inactive) | GI50 (MCF7): > 100 µM (inactive) | GI50 (TK-10): > 100 µM (inactive) | GI50 (NCI-H226): > 100 µM (inactive) | GI50 (SK-MEL-5): > 100 µM (inactive) | GI50 (SR): 66.2 µM (inactive) | GI50 (HOP-92): > 100 µM (inactive) | GI50 (OVCAR-3): > 100 µM (inactive) | GI50 (SF-295): > 100 µM (inactive) | GI50 (MDA-N): > 100 µM (inactive) | GI50 (SK-MEL-2): > 100 µM (inactive) | GI50 (Hs-578T): > 100 µM (inactive) | GI50 (MDA-MB-435): > 100 µM (inactive) | GI50 (MOLT-4): > 100 µM (inactive) | GI50 (NCI/ADR-RES): > 100 µM (inactive) | GI50 (SK-MEL-28): > 100 µM (inactive) | GI50 (A549): > 100 µM (inactive) | GI50 (OVCAR-8): > 100 µM (inactive) | GI50 (M14): > 100 µM (inactive) | GI50 (U-251): > 100 µM (inactive)

CCC/C(Cl)=N\OC(=O)Nc1ccc(F)c([N+](=O)[O-])c1
GI50 (DU-145): 14.7 µM (inactive) | GI50 (CCRF-CEM): 3.74 µM (inactive) | GI50 (UACC-62): 18.7 µM (inactive) | GI50 (OVCAR-5): 20.4 µM (inactive) | GI50 (UO-31): 13.7 µM (inactive) | GI50 (NCI-H460): 12.5 µM (inactive) | GI50 (RPMI-8226): 9.51 µM (inactive) | GI50 (EKVX): 16.2 µM (inactive) | GI50 (PC-3): 15.2 µM (inactive) | GI50 (OVCAR-4): 15.6 µM (inactive) | GI50 (HOP-62): 18.4 µM (inactive) | GI50 (BT-549): 10.2 µM (inactive) | GI50 (SN12C): 27.2 µM (inactive) | GI50 (SNB-75): 17.6 µM (inactive) | GI50 (IGROV-1): 15.3 µM (inactive) | GI50 (786-0): 16.8 µM (inactive) | GI50 (HCT-15): 16.9 µM | GI50 (CAKI-1): 4.3 µM (inactive) | GI50 (SF-268): 14.2 µM (inactive) | GI50 (SW-620): 4.8 µM (inactive) | GI50 (NCI-H522): 1.79 µM (inactive) | GI50 (SNB-19): 15.2 µM (inactive) | GI50 (A498): 21.5 µM (inactive) | GI50 (NCI-H23): 12.9 µM (inactive) | GI50 (UACC-257): 17.3 µM (inactive) | GI50 (SK-OV-3): 24.6 µM (inactive) | GI50 (HCT-116): 26.2 µM (inactive) | GI50 (Malme-3M): 10.9 µM (inactive) | GI50 (ACHN): 4.97 µM (inactive) | GI50 (HCC 2998): 14.5 µM (inactive) | GI50 (SF-539): 24 µM (inactive) | GI50 (LOX IMVI): 21.9 µM (inactive) | GI50 (HT-29): 20.1 µM (inactive) | GI50 (COLO 205): 3.54 µM (inactive) | GI50 (KM12): 16.7 µM (inactive) | GI50 (MCF7): 25.5 µM (inactive) | GI50 (TK-10): 17 µM (inactive) | GI50 (NCI-H226): 24.2 µM (inactive) | GI50 (SK-MEL-5): 16.7 µM (inactive) | GI50 (MDA-MB-231): 20.3 µM (inactive) | GI50 (K562): 5.32 µM (inactive) | GI50 (HOP-92): 15 µM (inactive) | GI50 (OVCAR-3): 15.6 µM (inactive) | GI50 (SF-295): 33.8 µM (inactive) | GI50 (MDA-N): 21.1 µM (inactive) | GI50 (SK-MEL-2): 14.3 µM (inactive) | GI50 (MDA-MB-435): 16.2 µM (inactive) | GI50 (MOLT-4): 3.41 µM (inactive) | GI50 (NCI/ADR-RES): 17.9 µM (inactive) | GI50 (SK-MEL-28): 18 µM (inactive) | GI50 (A549): 24.7 µM (inactive) | GI50 (OVCAR-8): 17.5 µM (inactive) | GI50 (M14): 14.7 µM (inactive) | GI50 (U-251): 18.3 µM (inactive)

Cc1cn(S(=O)(=O)c2ccccc2)c2c(OCc3ccccc3)cc([N+](=O)[O-])cc12
GI50 (DU-145): > 100 µM (inactive) | GI50 (CCRF-CEM): > 100 µM (inactive) | GI50 (UACC-62): 21.3 µM (inactive) | GI50 (OVCAR-5): > 100 µM (inactive) | GI50 (UO-31): 69.3 µM (inactive) | GI50 (NCI-H460): > 100 µM (inactive) | GI50 (RPMI-8226): > 100 µM (inactive) | GI50 (EKVX): 35.7 µM (inactive) | GI50 (PC-3): 32.9 µM (inactive) | GI50 (OVCAR-4): 86.3 µM (inactive) | GI50 (T47D): 29.2 µM (inactive) | GI50 (HOP-62): > 10 µM (inactive) | GI50 (BT-549): > 100 µM (inactive) | GI50 (SN12C): 57.7 µM (inactive) | GI50 (SNB-75): 25.3 µM (inactive) | GI50 (IGROV-1): 71 µM (inactive) | GI50 (RXF 393): 25.1 µM (inactive) | GI50 (786-0): 27.1 µM (inactive) | GI50 (HCT-15): > 100 µM | GI50 (CAKI-1): > 100 µM (inactive) | GI50 (SF-268): > 100 µM (inactive) | GI50 (SW-620): 63 µM (inactive) | GI50 (NCI-H522): 70.5 µM (inactive) | GI50 (SNB-19): 56.4 µM (inactive) | GI50 (A498): 30.6 µM (inactive) | GI50 (NCI-H23): 96.8 µM (inactive) | GI50 (UACC-257): > 100 µM (inactive) | GI50 (SK-OV-3): 50.8 µM (inactive) | GI50 (HCT-116): > 100 µM (inactive) | GI50 (Malme-3M): 17.5 µM (inactive) | GI50 (ACHN): 61.7 µM (inactive) | GI50 (HL-60): > 100 µM (inactive) | GI50 (HCC 2998): > 100 µM (inactive) | GI50 (SF-539): > 100 µM (inactive) | GI50 (LOX IMVI): > 100 µM (inactive) | GI50 (HT-29): > 100 µM (inactive) | GI50 (COLO 205): > 100 µM (inactive) | GI50 (KM12): > 100 µM (inactive) | GI50 (MCF7): 32.4 µM (inactive) | GI50 (TK-10): > 100 µM (inactive) | GI50 (NCI-H226): 58.7 µM (inactive) | GI50 (SK-MEL-5): 6.17 µM (inactive) | GI50 (MDA-MB-231): 80.9 µM (inactive) | GI50 (K562): > 100 µM (inactive) | GI50 (SR): < 0.01 µM (active) | GI50 (HOP-92): 74 µM (inactive) | GI50 (OVCAR-3): > 100 µM (inactive) | GI50 (SF-295): 27.9 µM (inactive) | GI50 (SK-MEL-2): 62.4 µM (inactive) | GI50 (Hs-578T): 26 µM (inactive) | GI50 (MDA-MB-435): 3.92 µM (inactive) | GI50 (MOLT-4): > 100 µM (inactive) | GI50 (NCI/ADR-RES): > 100 µM (inactive) | GI50 (SK-MEL-28): 79.8 µM (inactive) | GI50 (A549): 41.5 µM (inactive) | GI50 (OVCAR-8): > 100 µM (inactive) | GI50 (M14): > 100 µM (inactive) | GI50 (U-251): 31 µM (inactive)

— ChEMBL document CHEMBL1201862, “PubChem BioAssay data set” (2004)
